Read-outs that look alike come from different tables or passages of the source.
Key:
Mpro = Mpro (Severe acute respiratory syndrome coronavirus 2, UniProt P0DTD1); conditions: read-out: IC50 (half-maximal inhibitory concentration), Dai et al., Science 2020; cited from earlier work
SARS-COV-2 [1] = conditions: VeroE6 cells, RNA replication by qPCR; Hattori et al. 2021; read-out: EC50, blocking of SARS-COV-2 infection; cited from earlier work
SARS-COV-2 [2] = assay: microbe, parasite or virus in culture; type: cell-based; conditions: Vero cells; for reduction in infectivity titres compared with the control: 10 μM; for reduction in the infectivity titres compared with the control: 4 h pre-incubation, MOI 0.04, 48 h; for inhibition at 8 µM / inhibition at 6 µM: Severe acute respiratory syndrome coronavirus 2; for inhibition at 8 µM: read-out: inhibition percentage; for inhibition at 6 µM: read-out: inhibition of viral replication
SARS-COV-2 [3] = conditions: Rut et al., Nat. Chem. Biol. 2021; cited from earlier work
[4] = 6 μM, same experimental conditions

Row | Compound | reduction in infectivity titres compared with the control (SARS-COV-2 [2]; same experimental conditions) [%] | reduction in the infectivity titres compared with the control (SARS-COV-2 [2]; 16.6 μM) [%] | inhibition at 8 µM (SARS-COV-2 [2]; same experimental conditions) [%] | inhibition at 6 µM (SARS-COV-2 [2]; [4]) [%] | also measured
1 | O=C[C@H](C[C@@H]1CCNC1=O)NC(=O)[C@H](Cc1cccc(F)c1)NC(=O)c1cc2ccccc2[nH]1 [11b] |  |  |  |  | IC50 (Mpro): 0.04 µM
2 | O=C(Oc1cncc(Cl)c1)c1cccc2c1CCN2 [GRL-1720] |  |  |  |  | EC50 (SARS-COV-2 [1]): 15 ± 4 µM
3 | C=C(CC)C(=O)c1ccc(OCC(=O)Nc2ccc3c(cnn3C)c2)c(Cl)c1Cl [P7, 2-(2,3-dichloro-4-(2-methylenebutanoyl)phenoxy)-N-(1-methyl-1H-indazol-5-yl)acetamide] | 100 | 100 | ~96.7 |  | inhibition of viral replication (SARS-COV-2 [2]; [4]): did not inhibit virus replication at all
4 | C=C(CC)C(=O)c1ccc(OCC(=O)Nc2ccc3[nH]ncc3c2)c(Cl)c1Cl [P26, 2-(2.3-dichloro-4-(2-methylenebutanoyl)phenoxy)-N-(1H-indazol-5-yl)acetamide] | 93.09 | 97.96 | ~52.1 | ~30 | 
5 | C=C(CC)C(=O)c1ccc(OCC(=O)Nc2cccc3cn(C)nc23)c(Cl)c1Cl [P30, 2-(2,3-dichloro-4-(2-methylenebutanoyl)phenoxy)-N-(2-methyl-2H-indazol-7-yl)acetamide] | 100 |  | ~99.7 | ~30 | reduction in the infectivity titres compared with the control (SARS-COV-2 [2]; 5.54 μM): 96.75%
6 | Ac-Abu-dTyr-Leu-Gln-VS [Ac-QSS-VS (15)] |  |  |  |  | EC50 (SARS-COV-2 [3]): 3.7 µM

From US20240287003A1, “ETHACRYNIC ACID DERIVATIVES AS INHIBITORS OF MPRO PROTEASE AND SARS-COV-2 REPLICATION” (UNIVERSITE EUROMEDITERRANEENNE DE FES, priority 2021, published 2024)
